Test results: patent US20240252488A1 (KOREA RESEARCH INSTITUTE OF CHEMICAL TECHNOLOGY, priority 2020, published 2024)

What was measured:
MLKL [1] = target: T1, MLKL (Homo sapiens, UniProt Q8NB16); assay: Measurement of binding affinity with MLKL receptor (competitive binding assay, Kd); set-up: made in house; host or cells: HEK 293 cell line (T7 phage in E. coli BL21-derived host is also described)
T1 sequence (Q8NB16 1-471): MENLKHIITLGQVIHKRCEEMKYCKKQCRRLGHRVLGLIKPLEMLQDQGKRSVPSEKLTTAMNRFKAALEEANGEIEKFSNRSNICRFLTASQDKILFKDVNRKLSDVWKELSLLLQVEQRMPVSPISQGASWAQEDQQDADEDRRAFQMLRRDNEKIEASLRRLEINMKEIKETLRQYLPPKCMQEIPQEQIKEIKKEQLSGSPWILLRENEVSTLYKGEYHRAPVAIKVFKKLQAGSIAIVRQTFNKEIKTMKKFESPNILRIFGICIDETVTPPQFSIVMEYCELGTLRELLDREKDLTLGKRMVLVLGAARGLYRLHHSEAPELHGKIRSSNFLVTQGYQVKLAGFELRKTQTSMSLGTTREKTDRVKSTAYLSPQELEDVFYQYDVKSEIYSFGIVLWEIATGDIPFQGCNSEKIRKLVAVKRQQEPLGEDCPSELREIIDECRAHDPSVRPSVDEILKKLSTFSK
Method in brief: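 Kd from an immobilized-ligand competition format: the DNA-tagged kinase from HEK 293 expression is eluted and quantified by qPCR. Compounds added from 111× DMSO stocks, final DMSO 0.9%.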

MLKL [2] = target: T1, MLKL; assay: MLKL degradation assay in HepG2 cell line (western blot); assay type: cell-based; set-up: endogenous in cells; host or cells: HepG2 or HaCaT; conditions: cell line not given; for Degradation assay (Degradation %) 1 μM: compound 1 μM; for Degradation assay (Degradation %) 10 μM: compound 10 μM
Method in brief: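 After treating HepG2 with test compounds (final 1 μM or 10 μM) for 20-24 h, we lysed cells, equalized protein by BCA and probed MLKL by overnight primary antibody at 4 °C followed by chemiluminescent detection.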

FADD−/− Jurkat cells = assay: Necroptosis inhibition assay, TNF-α-induced necroptosis (CellTiter-Glo 2.0); assay type: cell-based, human; conditions: TNF-α 15 ng/mL; for Necroptosis inhibition assay (Rescue %) 1 μM: compound 1 μM; for Necroptosis inhibition assay (Rescue %) 10 μM: compound 10 μM
Method in brief: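 Necroptosis was triggered by TNF-α at 15 ng/mL final following 30 minutes of compound exposure (0.1, 1 or 10 μM final). Incubation ran 20 to 24 hours at 37° C under 5% CO2; cell ATP was then quantified by luminescence.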

SMILES | Kd (MLKL [1]) [nM] | Degradation assay (Degradation %) 1 μM (MLKL [2]) [%] | Degradation assay (Degradation %) 10 μM (MLKL [2]) [%] | Necroptosis inhibition assay (Rescue %) 1 μM (FADD−/− Jurkat cells) [%] | Necroptosis inhibition assay (Rescue %) 10 μM (FADD−/− Jurkat cells) [%] | Necroptosis inhibition assay (Rescue %) 1 μM (FADD−/− Jurkat cells; FADD−/− Jurkat cells) [%] | Necroptosis inhibition assay (Rescue %) 10 μM (FADD−/− Jurkat cells; FADD−/− Jurkat cells) [%]
Nc1ncc(-c2cn(C3CCN(CC4CCN(c5cccc6c5C(=O)N(C5CCC(=O)NC5=O)C6=O)CC4)CC3)nn2)nc1C(=O)OC(C(=O)Nc1ccc(F)cc1)c1ccccc1 (stereo not shown) [TDH-225, 2-((4-fluorophenyl)amino)-2-oxo-1-phenylethyl 3-amino-6-(1-(1-((1-(2-(2,6-dioxopiperidin-3-yl)-1,3-dioxoisoindolin-4-yl)piperidin-4-yl)methyl)piperidin-4-yl)-1H-1,2,3-triazol-4-yl)pyrazine-2-carboxylate] | 8 | 36.29 | 25.24 | 55.04 | 49.01 | – | –
COc1ccc(C(=O)N2CCC(CCN3CCC(CN4CCC(n5cc(-c6cnc(N)c(C(=O)O[C@@H](C(=O)Nc7ccc(F)cc7)c7ccccc7)n6)cn5)CC4)CC3)CC2)cc1N1CCC(=O)NC1=O [TDH-501, (R)-2-((4-fluorophenyl)amino)-2-oxo-1-phenylethyl 3-amino-6-(1-(1-((1-(2-(1-(3-(2,4-dioxotetrahydropyrimidin-1(2H)-yl)-4-methoxybenzoyl)piperidin-4-yl)ethyl)piperidin-4-yl)methyl)piperidin-4-yl)-1H-pyrazol-4-yl)pyrazine-2-carboxylate] | 0.95 | 93.47 | 96.40 | – | – | 92.23 | 71.17
Nc1ncc(-c2cnn(C3CCN(CCC4CCN(c5cccc6c5C(=O)N(C5CCC(=O)NC5=O)C6=O)CC4)CC3)c2)nc1C(=O)O[C@@H](C(=O)Nc1ccc(F)cc1)c1ccccc1 (stereo partly drawn) [TDH-202, (R)-2-((4-fluorophenyl)amino)-2-oxo-1-phenylethyl 3-amino-6-(1-(1-(2-(1-(2-(2,6-dioxopiperidin-3-yl)-1,3-dioxoisoindolin-4-yl)piperidin-4-yl)ethyl)piperidin-4-yl)-1H-pyrazol-4-yl)pyrazine-2-carboxylate] | 2.1 | 65.39 | 53.78 | 60.16 | 29.13 | – | –
Nc1ncc(-c2cnn(C3CCN(CCCCCCCCCCNc4ccc5nnn(C6CCC(=O)NC6=O)c(=O)c5c4)CC3)c2)nc1C(=O)O[C@@H](C(=O)Nc1ccc(F)cc1)c1ccccc1 (stereo partly drawn) [TDH-179, (R)-2-((4-fluorophenyl)amino)-2-oxo-1-phenylethyl 3-amino-6-(1-(1-(10-((3-(2,6-dioxopiperidin-3-yl)-4-oxo-3,4-dihydrobenzo[d][1,2,3]triazin-6-yl)amino)decyl)piperidin-4-yl)-1H-pyrazol-4-yl)pyrazine-2-carboxylate] | 31 | 78.61 | 61.56 | 23.48 | 14.8 | – | –
Nc1ncc(-c2cnn(C3CCN(C[C@H]4CC[C@H](CNC(=O)CNc5ccc6c(c5)C(=O)N(C5CCC(=O)NC5=O)C6=O)CC4)CC3)c2)nc1C(=O)O[C@@H](C(=O)Nc1ccc(F)cc1)c1ccccc1 (stereo partly drawn) [TDH-348, (R)-2-((4-fluorophenyl)amino)-2-oxo-1-phenylethyl 3-amino-6-(1-(1-(((1r,4r)-4-((2-((2-(2,6-dioxopiperidin-3-yl)-1,3-dioxoisoindolin-5-yl)amino)acetamido)methyl)cyclohexyl)methyl)piperidin-4-yl)-1H-pyrazol-4-yl)pyrazine-2-carboxylate] | 1.6 | 48.66 | 81.15 | 61.43 | 29.04 | – | –
Nc1ncc(-c2cnn(C3CCN(C(=O)C4CCN(C(=O)CNc5ccc6c(c5)C(=O)N(C5CCC(=O)NC5=O)C6=O)CC4)CC3)c2)nc1C(=O)OC(C(=O)Nc1ccc(F)cc1)c1ccccc1 (stereo not shown) [TDH-276, 2-((4-fluorophenyl)amino)-2-oxo-1-phenylethyl 3-amino-6-(1-(1-(1-((2-(2,6-dioxopiperidin-3-yl)-1,3-dioxoisoindolin-5-yl)glycyl)piperidine-4-carbonyl)piperidin-4-yl)-1H-pyrazol-4-yl)pyrazine-2-carboxylate] | 3.6 | 78.62 | 75.61 | 75.36 | 70.49 | – | –
Nc1ncc(-c2cnn(C3CCN(CCCN4CC5CN(C(=O)CNc6ccc7c(c6)C(=O)N(C6CCC(=O)NC6=O)C7=O)CC5C4)CC3)c2)nc1C(=O)O[C@@H](C(=O)Nc1ccc(F)cc1)c1ccccc1 (stereo partly drawn) [TDH-467, (R)-2-((4-fluorophenyl)amino)-2-oxo-1-phenylethyl 3-amino-6-(1-(1-(3-(5-((2-(2,6-dioxopiperidin-3-yl)-1,3-dioxoisoindolin-5-yl)glycyl)hexahydropyrrolo[3,4-c]pyrrol-2(1H)-yl)propyl)piperidin-4-yl)-1H-pyrazol-4-yl)pyrazine-2-carboxylate] | 0.5 | 93.95 | 86.45 | – | – | 54.19 | −9.09
Nc1ncc(-c2cnn(C3CCN(CC4CCN(CC(=O)N5CCN(c6cccc7c6C(=O)N(C6CCC(=O)NC6=O)C7=O)CC5)CC4)CC3)c2)nc1C(=O)OC(C(=O)Nc1ccc(F)cc1)c1ccccc1 (stereo not shown) [TDH-237, 2-((4-fluorophenyl)amino)-2-oxo-1-phenylethyl 3-amino-6-(1-(1-((1-(2-(4-(2-(2,6-dioxopiperidin-3-yl)-1,3-dioxoisoindolin-4-yl)piperazin-1-yl)-2-oxoethyl)piperidin-4-yl)methyl)piperidin-4-yl)-1H-pyrazol-4-yl)pyrazine-2-carboxylate] | 1.8 | 56.98 | 65.18 | 67.77 | 34.51 | – | –
COc1ccc(C(=O)N2CCC(C(=O)N3CCC(CN4CCC(CCN5CCC(n6cc(-c7cnc(N)c(C(=O)O[C@@H](C(=O)Nc8ccc(F)cc8)c8ccccc8)n7)cn6)CC5)CC4)CC3)CC2)cc1N1CCC(=O)NC1=O [TDH-511, (R)-2-((4-fluorophenyl)amino)-2-oxo-1-phenylethyl 3-amino-6-(1-(1-(2-(1-((1-(1-(3-(2,4-dioxotetrahydropyrimidin-1(2H)-yl)-4-methoxybenzoyl)piperidine-4-carbonyl)piperidin-4-yl)methyl)piperidin-4-yl)ethyl)piperidin-4-yl)-1H-pyrazol-4-yl)pyrazine-2-carboxylate] | 0.24 | 81.08 | 91.73 | – | – | 32.32 | 46.16
Nc1ncc(-c2cnn(C3CCN(C(=O)c4cn(C5CCN(C(=O)C6CCN(c7ccc8c(c7)C(=O)N(C7CCC(=O)NC7=O)C8=O)CC6)CC5)cn4)CC3)c2)nc1C(=O)O[C@@H](C(=O)Nc1ccc(F)cc1)c1ccccc1 (stereo partly drawn) [TDH-363, (R)-2-((4-fluorophenyl)amino)-2-oxo-1-phenylethyl 3-amino-6-(1-(1-(1-(1-(1-(2-(2,6-dioxopiperidin-3-yl)-1,3-dioxoisoindolin-5-yl)piperidine-4-carbonyl)piperidin-4-yl)-1H-imidazole-4-carbonyl)piperidin-4-yl)-1H-pyrazol-4-yl)pyrazine-2-carboxylate] | 2.9 | 76.83 | 69.84 | 32.65 | 27.11 | – | –
Nc1ncc(-c2cnn(C3CCN(C(=O)CC4CCN(C(=O)CNc5ccc6nnn(C7CCC(=O)NC7=O)c(=O)c6c5)CC4)CC3)c2)nc1C(=O)O[C@@H](C(=O)Nc1ccc(F)cc1)c1ccccc1 (stereo partly drawn) [TDH-405, (R)-2-((4-fluorophenyl)amino)-2-oxo-1-phenylethyl 3-amino-6-(1-(1-(2-(1-((3-(2,6-dioxopiperidin-3-yl)-4-oxo-3,4-dihydrobenzo[d][1,2,3]triazin-6-yl)glycyl)piperidin-4-yl)acetyl)piperidin-4-yl)-1H-pyrazol-4-yl)pyrazine-2-carboxylate] | 3.2 | 70.59 | 64.30 | – | – | 36.97 | 37.28
